#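 Where inhibition never reached the appropriate level, the endpoint shown equals the highest concentration tested. Otherwise, values were interpolated linearly from a five-concentration, 48-hour dose response in 96-well plates. At the GI50, growth is halved.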 Calls of active or inactive are those of the source. Cut-off read from the data, not from the text of the source: active = GI50 up to about 1.1 µM and inactive = higher.
# Experiments:
# Test in all cases: NCI anticancer screen, dose series, 48 h
# [1] = test system: SK-OV-3
# [2] = test system: MDA-MB-231
# [3] = test system: SNB-75
# [4] = test system: SR
# [5] = test system: NCI-H522
# [6] = test system: MCF7
# [7] = test system: BT-549
# [8] = test system: OVCAR-4
# [9] = test system: SW-620
# [10] = test system: HCT-15
# [11] = test system: OVCAR-5
# [12] = test system: HL-60
# [13] = test system: A549
# [14] = test system: SNB-19
# [15] = test system: Hs-578T
# [16] = test system: IGROV-1
# [17] = test system: ACHN
# [18] = test system: SK-MEL-5
# [19] = test system: UACC-62
# [20] = test system: SF-295
# [21] = test system: SN12C
# [22] = test system: NCI/ADR-RES
# [23] = test system: HOP-62
# [24] = test system: NCI-H23
# [25] = test system: PC-3
# [26] = test system: SF-539
# [27] = test system: CCRF-CEM
# [28] = test system: HCC 2998
# [29] = test system: OVCAR-3
# [30] = test system: SF-268
# [31] = test system: SK-MEL-28
# [32] = test system: MDA-MB-435
# [33] = test system: EKVX
# [34] = test system: T47D
# [35] = test system: MDA-N
# [36] = test system: RXF 393
# [37] = test system: KM12
# [38] = test system: COLO 205
# [39] = test system: DU-145
# [40] = test system: HOP-92
# [41] = test system: NCI-H460
# [42] = test system: MOLT-4
# [43] = test system: K562
# [44] = test system: Malme-3M
# [45] = test system: OVCAR-8
# [46] = test system: UACC-257
# [47] = test system: 786-0
# [48] = test system: TK-10
# [49] = test system: NCI-H226
# [50] = test system: HCT-116
# [51] = test system: M14
# [52] = test system: RPMI-8226
# [53] = test system: HT-29
# [54] = test system: UO-31
# [55] = test system: U-251
# [56] = test system: A498
# [57] = test system: CAKI-1
# [58] = test system: LOX IMVI
# [59] = test system: SK-MEL-2
compound,measurement,setting,value
CCNC1=C(NC(=O)c2ccc(F)cc2)C(=O)c2ccccc2C1=O,GI50,[1],18.5 µM (inactive)
same,GI50,[2],44.8 µM (inactive)
same,GI50,[3],62.2 µM (inactive)
same,GI50,[4],48.4 µM (inactive)
same,GI50,[5],21 µM (inactive)
same,GI50,[6],30.3 µM (inactive)
same,GI50,[7],> 100 µM (inactive)
same,GI50,[8],40.1 µM (inactive)
same,GI50,[9],32.2 µM (inactive)
same,GI50,[10],30.5 µM
same,GI50,[11],> 100 µM (inactive)
same,GI50,[12],40.3 µM (inactive)
same,GI50,[13],70.8 µM (inactive)
same,GI50,[14],> 100 µM (inactive)
same,GI50,[15],> 100 µM (inactive)
same,GI50,[16],31.6 µM (inactive)
same,GI50,[17],> 100 µM (inactive)
same,GI50,[18],35 µM (inactive)
same,GI50,[19],15.1 µM (inactive)
same,GI50,[20],52.6 µM (inactive)
same,GI50,[21],38.7 µM (inactive)
same,GI50,[22],27.3 µM (inactive)
same,GI50,[23],> 100 µM (inactive)
same,GI50,[24],34.6 µM (inactive)
same,GI50,[25],17.3 µM (inactive)
same,GI50,[26],72.1 µM (inactive)
same,GI50,[27],35.8 µM (inactive)
same,GI50,[28],34.8 µM (inactive)
same,GI50,[29],36.6 µM (inactive)
same,GI50,[30],> 100 µM (inactive)
same,GI50,[31],> 100 µM (inactive)
same,GI50,[32],18.2 µM (inactive)
same,GI50,[33],> 100 µM (inactive)
same,GI50,[34],47.1 µM (inactive)
same,GI50,[35],33.6 µM (inactive)
same,GI50,[36],29.4 µM (inactive)
same,GI50,[37],49.9 µM (inactive)
same,GI50,[38],26.7 µM (inactive)
same,GI50,[39],> 100 µM (inactive)
same,GI50,[40],> 100 µM (inactive)
same,GI50,[41],50.1 µM (inactive)
same,GI50,[42],30.1 µM (inactive)
same,GI50,[43],65.8 µM (inactive)
same,GI50,[44],19.2 µM (inactive)
same,GI50,[45],32.7 µM (inactive)
same,GI50,[46],15.8 µM (inactive)
same,GI50,[47],> 100 µM (inactive)
same,GI50,[48],> 100 µM (inactive)
same,GI50,[49],> 100 µM (inactive)
same,GI50,[50],30.3 µM (inactive)
same,GI50,[51],24.5 µM (inactive)
same,GI50,[52],> 100 µM (inactive)
same,GI50,[53],22.2 µM (inactive)
N#CC1Cc2cc3c(cc21)OCO3 (stereo not drawn),GI50,[2],> 100 µM (inactive)
same,GI50,[3],> 100 µM (inactive)
same,GI50,[4],> 100 µM (inactive)
same,GI50,[6],> 100 µM (inactive)
same,GI50,[7],> 100 µM (inactive)
same,GI50,[8],> 100 µM (inactive)
same,GI50,[9],> 100 µM (inactive)
same,GI50,[10],> 100 µM
same,GI50,[11],> 100 µM (inactive)
same,GI50,[13],> 100 µM (inactive)
same,GI50,[14],> 100 µM (inactive)
same,GI50,[15],> 100 µM (inactive)
same,GI50,[16],> 100 µM (inactive)
same,GI50,[17],> 100 µM (inactive)
same,GI50,[18],> 100 µM (inactive)
same,GI50,[19],> 100 µM (inactive)
same,GI50,[20],> 100 µM (inactive)
same,GI50,[54],> 100 µM (inactive)
same,GI50,[21],> 100 µM (inactive)
same,GI50,[22],> 100 µM (inactive)
same,GI50,[23],> 100 µM (inactive)
same,GI50,[24],> 100 µM (inactive)
same,GI50,[25],> 100 µM (inactive)
same,GI50,[26],> 100 µM (inactive)
same,GI50,[27],> 100 µM (inactive)
same,GI50,[28],> 100 µM (inactive)
same,GI50,[29],> 100 µM (inactive)
same,GI50,[55],> 100 µM (inactive)
same,GI50,[31],> 100 µM (inactive)
same,GI50,[32],> 100 µM (inactive)
same,GI50,[56],> 100 µM (inactive)
same,GI50,[33],> 100 µM (inactive)
same,GI50,[34],> 100 µM (inactive)
same,GI50,[35],> 100 µM (inactive)
same,GI50,[37],> 100 µM (inactive)
same,GI50,[38],> 100 µM (inactive)
same,GI50,[39],> 100 µM (inactive)
same,GI50,[40],> 100 µM (inactive)
same,GI50,[57],> 100 µM (inactive)
same,GI50,[41],> 100 µM (inactive)
same,GI50,[42],> 100 µM (inactive)
same,GI50,[43],> 100 µM (inactive)
same,GI50,[44],> 100 µM (inactive)
same,GI50,[45],> 100 µM (inactive)
same,GI50,[58],> 100 µM (inactive)
same,GI50,[46],> 100 µM (inactive)
same,GI50,[59],> 100 µM (inactive)
same,GI50,[47],> 100 µM (inactive)
same,GI50,[48],> 100 µM (inactive)
same,GI50,[49],> 100 µM (inactive)
same,GI50,[50],> 100 µM (inactive)
same,GI50,[51],> 100 µM (inactive)
same,GI50,[53],> 100 µM (inactive)
COC(=O)C1Cc2cc3c(cc2C1=O)CCCC3 (stereo not drawn),GI50,[1],27.1 µM (inactive)
same,GI50,[2],63.7 µM (inactive)
same,GI50,[3],70.3 µM (inactive)
same,GI50,[4],30.3 µM (inactive)
same,GI50,[5],80.5 µM (inactive)
same,GI50,[6],42 µM (inactive)
same,GI50,[7],22.3 µM (inactive)
same,GI50,[8],64.9 µM (inactive)
same,GI50,[9],47 µM (inactive)
same,GI50,[10],43.2 µM
same,GI50,[11],72.9 µM (inactive)
same,GI50,[12],29.2 µM (inactive)
same,GI50,[13],> 100 µM (inactive)
same,GI50,[14],56.5 µM (inactive)
same,GI50,[15],48.4 µM (inactive)
same,GI50,[16],67.5 µM (inactive)
same,GI50,[17],94.6 µM (inactive)
same,GI50,[18],48 µM (inactive)
same,GI50,[19],> 100 µM (inactive)
same,GI50,[20],62.1 µM (inactive)
same,GI50,[54],51.9 µM (inactive)
same,GI50,[21],77.4 µM (inactive)
same,GI50,[22],48.9 µM (inactive)
same,GI50,[23],48.6 µM (inactive)
same,GI50,[24],43.2 µM (inactive)
same,GI50,[25],30.8 µM (inactive)
same,GI50,[26],> 100 µM (inactive)
same,GI50,[27],37.2 µM (inactive)
same,GI50,[28],> 100 µM (inactive)
same,GI50,[29],> 100 µM (inactive)
same,GI50,[30],62.1 µM (inactive)
same,GI50,[55],43.5 µM (inactive)
same,GI50,[31],> 100 µM (inactive)
same,GI50,[32],> 100 µM (inactive)
same,GI50,[56],53.5 µM (inactive)
same,GI50,[33],46.8 µM (inactive)
same,GI50,[34],37.6 µM (inactive)
same,GI50,[35],> 100 µM (inactive)
same,GI50,[37],34.3 µM (inactive)
same,GI50,[38],> 100 µM (inactive)
same,GI50,[39],45.8 µM (inactive)
same,GI50,[57],54.1 µM (inactive)
same,GI50,[41],> 100 µM (inactive)
same,GI50,[42],41.2 µM (inactive)
same,GI50,[43],33.6 µM (inactive)
same,GI50,[44],> 100 µM (inactive)
same,GI50,[45],46.6 µM (inactive)
same,GI50,[58],67 µM (inactive)
same,GI50,[46],> 100 µM (inactive)
same,GI50,[59],> 100 µM (inactive)
same,GI50,[47],66.5 µM (inactive)
same,GI50,[48],28 µM (inactive)
same,GI50,[49],23.8 µM (inactive)
same,GI50,[50],42.3 µM (inactive)
same,GI50,[51],> 100 µM (inactive)
same,GI50,[52],45.9 µM (inactive)
same,GI50,[53],61.8 µM (inactive)
